# Experimental data from US8771741B2, “In vivo photodynamic therapy of cancer via a near infrared agent encapsulated in calcium phosphate nanoparticles” (The Penn State Research Foundation, priority 2009, dated 2014).
# “Also recorded” adds a separate entry of the source. Counter-ions that a name gives are not always drawn.
# How the values were obtained:
# [1] = test system: MCF-7/ADR (adriamycin resistant) breast adenocarcinoma cells; assay: Caspase-3/7 apoptosis assay, drug resistant cells; assay type: cell-based, human; conditions: 24 hrs
# Experimental: (§1) Human MCF-7 breast adenocarcinoma cells and the adriamycin resistant MCF-7-ADR(NCl-AdrR) were grown at 37° C. in RPMI 1640 medium supplemented with 10% fetal bovine serum (FBS). MCF-7 and MCF-7-ADR cells were seeded to a density of 6×10^3 cells/well and grown for 48 hrs in culture medium containing 10% FBS. Cells were then treated with Cer10-CPNP or control CPNP for 24 hrs in media containing 1% fetal bovine serum. Caspase-3/7 enzymatic activity levels were then measured using the Apo-ONE Homogenous Caspase-3/7 Assay (Promega) and performed following the instructions of the manufacturer. The kit provides a caspase-3/7 substrate and Rhodamine 110, which is cleaved by enzymatically active caspase-3/7 resulting in a fluorogenic cleavage product.
# [2] = test system: MCF-7 breast adenocarcinoma cells; assay: Caspase-3/7 apoptosis assay, drug sensitive cells; assay type: cell-based, human; conditions: MCF-7, 24 hrs
# Experimental: as §1
# [3] = Solubility in water; assay type: physicochemical
# [4] = test system: animal subjects; conditions: cited from earlier work
# [5] = Quantum efficiency of ICG; assay type: physicochemical; conditions: PBS pH 7.4, reference HITC
# Experimental: Each measurement was conducted in duplicate on two separate occasions using freshly prepared stock solutions and a new set of standard data.
# [6] = test system: nude mice implanted with subcutaneous human breast adenocarcinoma tumors; assay: In vivo NIR imaging: pharmacokinetic distribution and tumor localization; conditions: 24 hours post tail vein injection
# Experimental: A NIR whole animal imaging approach was used to investigate the in vivo pharmacokinetic distribution of ICG-CPNPs in nude mice. […] Two different surface functionalities of CPNPs were evaluated, as-synthesized carboxylate surface termination (not shown) and particles surface functionalized with polyethylene glycol (PEG) (series iii). The in vivo behavior of the ICG-CPNP samples were compared to two controls: a sample of carboxylated ghost CPNPs without a fluorescent encapsulate (series i) and free ICG of equivalent absorption (series ii). […] The relatively short in vivo fluorescence of the free dye is attributed to fluorescence quenching of free ICG in physiological environments (Landsman, M. L. J.; Kwant, G.; Mook, G. A.; Zijlstra, W. G. Journal of Applied Physiology 1976, 40, (4), 575-583; Desmettre, T.; Devoisselle, J. M.; Mordon, S. Survey of Opthalmology 2000, 45, (1), 15-27; Simmons, R.; Shephard, R. J. Journal of Applied Physiology 1971, 30, (4), 502-507; Gathje, J.; Steuer, R. R.; Nicholes, K. R. K. Journal of Applied Physiology 1970, 29, (2), 181-185; Mordon, S.; Devoisselle, J. M.; Soulie-Begu, S.; Desmettre, T. Microvascular Research 1998, 55, (2), 146-152; Maarek, J. M. I.; Holschneider, D. P.; Harimoto, J. Journal of Photochemistry and Photobiology B-Biology 2001, 65, (2-3), 157-164) with rapid aggregation and clearance from the body. […]
# [7] = Solvent protection (emission spectra in four bio-relevant solvents); assay type: physicochemical; conditions: water, DMEM, ethylene glycol, DMSO
# Text: The chemical stability of the encapsulated fluorophore was experimentally verified by analyzing fluorescence spectra as a function of solvent environment. The effect of four bio-relevant solvents (water, Dulbecco's modified Eagle's medium (DMEM), ethylene glycol, and dimethylsulfoxide (DMSO)) on the free ICG dye is shown in FIG. 17A, with shifts in the normalized emission spectra dependent on the solvent environment. The maximum emission wavelengths have a standard deviation of 7.8 nm over an 18 nm spread. These peak values shift toward longer wavelengths due to a combination of general solvent influences and specific solvent effects, such as molecule-molecule interactions and hydrogen bonding. (Lakowicz, J. R., Principles of Fluorescence Spectroscopy. 3rd ed.; Springer: Baltimore, Md., 2006).
# Fluorescence spectra were recorded using an in-house spectroscopy system in which emitted radiation was collected at 90 degrees with a 10× microscope objective (N.A. 0.3) coupled into a fiber optic cable leading to the spectrometer (Ocean Optics HR-2000-USB). A high power 785 nm diode laser (450 mW/cm^2) was used as the excitation source (RL785; Renishaw plc, Gloucestershire, UK). […] Aliquots of each were diluted 1:10 into the test solvent and kept in the dark. Measurements were conducted precisely 10 minutes after the sample introduction.
# [8] = Fluorescence emission of ICG-CPNPs versus free ICG; assay type: physicochemical; conditions: aqueous solution, pH 7; data not shown
# Text: The fluorescence spectrum of the dye-doped CPNPs was compared to that of the corresponding free ICG dye under identical optical conditions (785 nm excitation). […] These undesirable phenomena result in peak transformations or spectral shifts, respectively, which are not observed for the embedded ICG emission.
# For all optical measurements, samples were placed in a low-volume fluorescence cuvette (9F-SOG-10-GL14-S; Starna Cells, Inc., Atascadero, Calif.), and held by a modified cuvette holder. Absorption spectra were recorded on a PerkinElmer Lambda 950 UV-Vis-NIR spectrophotometer (Perkin Elmer, Waltham, Mass.). The dye-doped particle absorption at 785 nm was compared to a standard curve of absorption vs. ICG concentration to identify the apparent encapsulate content, not accounting for any matrix effects. Next, the release of the encapsulated fluorophore was induced with the addition of a 10:1 volume ratio of a 10^−3 M solution of ethylenediaminetetraacetic acid (EDTA) to the particle suspension. EDTA is a chelating agent that sequesters the divalent Ca^2+ ion from the nanostructure, dissolving the calcium phosphate particles. […]
# Fluorescence spectra were recorded using an in-house spectroscopy system in which emitted radiation was collected at 90 degrees with a 10× microscope objective (N.A. 0.3) coupled into a fiber optic cable leading to the spectrometer (Ocean Optics HR-2000-USB). […]
# [9] = in methanol; cited from earlier work
# [10] = Relative fluorescence quantum efficiency of Cy3; assay type: physicochemical; conditions: PBS, excitation 532 nm, reference Rhodamine 6G
# Experimental: As a comparison of the free dye to the encapsulated dye, the relative fluorescence quantum efficiency (QE) was determined according to techniques in the literature. (Williams, A. T. R.; Winfield, S. A.; Miller, J. N. The Analyst 1983, 108, 1067-1071; Kubin, R. F.; Fletcher, A. N. Journal of Luminescence 1982, 27, 455-462). In brief, the integrated fluorescence signals of the free Cy3 and the Cy3-doped CPNPs in PBS were compared to a known reference standard with an excitation wavelength of 532 nm and the QE was calculated using a modified relationship from Lakowicz (Lakowicz, J. R., Principles of Fluorescence Spectroscopy. Third ed.; Springer Science and Business Media: New York, 2006; p 54),
# [formula] where Φ, and ΦR are the QE for the sample and the reference respectively, M and Mr are the slopes of the integrated intensity versus absorption plots (FIG. 12A) and n is the refractive index of each solvent. Rhodamine 6G in ethanol was used as a reference with a quantum efficiency of 0.95. (Kubin, R. F.; Fletcher, A. N. Journal of Luminescence 1982, 27, 455-462). […] FIG. 12B exemplifies this enhancement in QE by comparing the fluorescence signal of the Cy3-doped CPNPs to a solution of Cy3 free dye with the same absorption at 532 nm. […]
# [11] = Fluorescence correlation spectroscopy in DPBS (pH dependent dissolution); assay type: physicochemical; conditions: for Diffusion coefficient, average / RH (hydrodynamic radius), average: DPBS pH 4, free dye, average of ten measurements
# Text: Fluorescence correlation spectroscopy was used to determine the solution phase behavior of the particles in order to better understand the particulate behavior in biologically-relevant solutions and to monitor only the fluorescing species. To this end we examined the free dye and the particles in DPBS (Dulbecco's phosphate buffered saline), at pH 7 and at pH 4. Low pH conditions mimicked the acidic environment of an endo-lysosome in which a particle would be enveloped during endocytosis.
# FCS measurements were collected for free Cy3 dye at pH 4, Cy3-doped nanoparticles at pH 4 and pH 7 in DPBS. Sample autocorrelation curves are shown in FIG. 9, where a shift of the curve to the right (greater characteristic diffusion time) signifies a lower diffusion coefficient and a larger hydrodynamic radius. In this case, the diffusion time of free Cy3 dye molecules is 127 μs and that of the nanoparticles at pH 7 is 1311 μs. […] The corresponding hydrodynamic radii are RH=9.40±3.83 nm for the nanoparticles at pH 7, RH=0.76±0.09 nm for the nanoparticles at pH 4 and RH=0.75±0.06 nm for the free dye at pH 4. Similar results were obtained for the nanoparticles in DI water at pH 7 and pH 4 (data not shown). In addition to the diffusion data, the particle number concentration can be determined based on the number of particles that diffuse through the observation volume. The CPNP suspension has a particle number concentration of ˜6×10^14 particles/mL, based on these determinations.
# The diffusion coefficients and their associated hydrodynamic radii for the ten measurements collected for each sample type (the nanoparticle samples at pH 7 and pH 4, and the Cy3 free dye at pH 4) are listed in Table S1.
compound,measurement,setting,value
"CCCCCCCCCCCCC/C=C/[C@@H](O)[C@H](CO)NC(=O)CCCCCCCCC [Cer10 in DMSO, Decanoyl-ceramide]",caspase 3/7 activity (apoptosis),[1],not
same,caspase 3/7 activity (apoptosis),[2],not
O=C1OC2(c3ccc(O)cc3Oc3cc(O)ccc32)c2ccccc21 [fluorescein sodium salt],solubility,[3]; water,> 40 mg/mL
"CC1(C)C(/C=C/C=C/C=C/C=C2\N(CCCCS(=O)(=O)O)c3ccc4ccccc4c3C2(C)C)=[N+](CCCCS(=O)(=O)[O-])c2ccc3ccccc3c21 [free ICG, indocyanine green]",LD50,[4],50 to 80 mg/kg
same,quantum efficiency (per molecule),[5],0.028±0.001
same,in vivo fluorescence signal,[6],no detectable signal; also recorded: No fluorescence signal is detected
same,spread of maximum emission wavelengths over four solvents,[7],18 nm
same,concentration at which self-aggregation and loss of emission intensity occur,[8],7 µM
"CN1C(=CC=CC=CC=CC2=[N+](C)c3ccccc3C2(C)C)C(C)(C)c2ccccc21.[I-] [hexamethylindotricarbocyanine (HITC), 1,1′,3,3,3′,3′-hexamethylindotricarbocyanine iodide]",quantum yield of reference dye,[9],0.28
Cy3 amidite [Cy3 Dye],quantum efficiency,[10]; listed as Cy3 in free solution,0.045
same,quantum efficiency,[10]; listed as free Cy3 dye,0.045±0.002
same,"Diffusion coefficient, average",[11],2.90 × 10^−6 cm^2/s
same,"RH (hydrodynamic radius), average",[11],0.751 nm
same,"Diffusion coefficient, average",[11]; listed as free Cy3 dye,29.0±0.18×10^−7 cm^2/s
same,"RH (hydrodynamic radius), average",[11]; listed as free Cy3 dye,0.75±0.06 nm
same,diffusion time,"[11]; sample autocorrelation curve, free dye pH 4",127 μs
same,solubility in water,[3],< 0.05 mg/mL
